Source: patent US20250230193A1, “CYCLIC COMPOUND HAVING SELECTIVE KRAS INHIBITORY EFFECT ON HRAS AND NRAS” (CHUGAI SEIYAKU KABUSHIKI KAISHA, priority 2022, published 2025)
*1 amine or outer side, *2 acyl side, *3 side chain or, on linkers, in order; H or OH if unused. Where a SMILES comes first, the peptide text is derived from it. Bridges are numbered along the chain shown (N, C = ends). [ ]: non-standard residue; d: D form. The star is where a group is joined. hPhe(3-Cl-4-CF3) = N[C@@H](CCc1ccc(C(F)(F)F)c(Cl)c1)C(=O)O; X23 = CC(C)CN([C@@H](Cc1ccc(C(F)(F)F)cc1)C(=O)[*:2])[*:1]; NPrPhe(4-CF3) = CCCN[C@@H](Cc1ccc(C(F)(F)F)cc1)C(=O)O; X33 = CCCN([C@@H](CC(C)C)C(=O)[*:2])[*:1]; NMeGly(cPent) = CN[C@H](C(=O)O)C1CCCC1; Pro(4,4-F2) = O=C(O)[C@@H]1CC(F)(F)CN1; NMeD = CN[C@@H](CC(=O)O)C(=O)O; NMeL = CN[C@@H](CC(C)C)C(=O)O; Morpholide = C1CN(*)CCO1; Ac5c = NC1(C(=O)O)CCCC1; Ac4c = NC1(C(=O)O)CCC1; Sar = CNCC(=O)O

What was measured:
[1] = biological target: GDP-bound NRAS wild-type protein (Homo sapiens, UniProt P01111); experiment: Binding to NRAS by surface plasmon resonance (SPR), Single Cycle Kinetics; settings: SPR
[2] = biological target: GDP-bound HRAS wild-type protein (Homo sapiens, UniProt P01112); experiment: Binding to HRAS by surface plasmon resonance (SPR), Single Cycle Kinetics; settings: SPR
[3] = KD ratio, GDP-bound NRAS wild-type vs GDP-bound KRAS wild-type
[4] = KD ratio, GDP-bound HRAS wild-type vs GDP-bound KRAS wild-type

GDP-bound NRAS wild-type protein, sequence (P01111 whole entry): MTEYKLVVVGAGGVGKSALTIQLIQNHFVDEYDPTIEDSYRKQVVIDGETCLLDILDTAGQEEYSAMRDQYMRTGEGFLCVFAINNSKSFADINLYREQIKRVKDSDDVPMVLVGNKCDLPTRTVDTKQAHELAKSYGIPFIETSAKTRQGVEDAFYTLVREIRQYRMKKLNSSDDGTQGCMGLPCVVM
GDP-bound HRAS wild-type protein, sequence (P01112 whole entry): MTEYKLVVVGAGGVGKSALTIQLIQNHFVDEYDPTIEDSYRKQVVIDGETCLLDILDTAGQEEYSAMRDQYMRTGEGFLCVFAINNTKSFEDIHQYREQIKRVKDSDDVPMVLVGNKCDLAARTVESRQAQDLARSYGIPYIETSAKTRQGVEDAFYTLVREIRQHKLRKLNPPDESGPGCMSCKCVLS

Question: Which “NRAS/KRAS (ratio of KD value with respect to GDP-bound NRAS wild-type protein to KD value with respect to KRAS)” value ([1]; KD ratio NRAS/KRAS) does the source give for `CCO[C@@H]1C[C@H]2C(=O)NC3(CCC3)C(=O)N(C)[C@@H](C3CCCC3)C(=O)N(C)[C@H](C(=O)N3CCOCC3)CC(=O)N(C)[C@@H](CC(C)(C)C)C(=O)N[C@@H]([C@@H](C)CC)C(=O)N(C)CC(=O)N(C)[C@H]3CCCCN(C3=O)[C@@H](Cc3ccc(C(F)(F)F)cc3)C(=O)N(C)CC(=O)N[C@@H](CCc3cc(F)c(C(F)(F)F)c(F)c3)C(=O)N2C1` [PP0714] here?
Answer: C (A compound having a KD ratio of 0.1 or more and less than 3 is denoted as C)

Question: What about the “HRAS/KRAS (ratio of KD value with respect to GDP-bound HRAS wild-type protein to KD value with respect to KRAS)” value ([2]; KD ratio HRAS/KRAS) of the same compound?
Answer: B (a compound having 3 or more and less than 10 is denoted as B)

Question: Which results are given for `CCC[C@H]1C(=O)N[C@@H]([C@@H](C)CC)C(=O)N(C2CC2)CC(=O)N(C)[C@H]2C/C=C\CCN(C2=O)[C@@H](CC2CCC(F)(F)CC2)C(=O)N(C)CC(=O)N[C@@H](CCc2ccc(C(F)(F)F)c(OC)c2)C(=O)N2C[C@H](OCC)C[C@H]2C(=O)N(C)C2(CCC2)C(=O)N(C)[C@@H](C(CC)CC)C(=O)N(C)[C@H](C(=O)N(C)C)CC(=O)N1C` [PP2349]?
Answer: NRAS/KRAS (ratio of KD value with respect to NRAS to KD value with respect to KRAS) ([1]; GDP-bound NRAS wild-type vs GDP-bound KRAS wild-type): A (a compound having 10 or more and less than 20 is denoted as A); HRAS/KRAS (ratio of KD value with respect to HRAS to KD value with respect to KRAS) ([2]; GDP-bound HRAS wild-type vs GDP-bound KRAS wild-type): A (a compound having 10 or more and less than 20 is denoted as A)

Question: Which results are given for `CCCN1C(=O)CN(C)C(=O)CN(C)C(=O)[C@H]([C@@H](C)CC)NC(=O)[C@H](CC(C)C)N(C)C(=O)C[C@@H](C(=O)N(C)C)N(C)C(=O)[C@H](C2CCCC2)N(C)C(=O)C2(CCCC2)NC(=O)[C@@H]2CC(F)(F)CN2C(=O)[C@H](CCc2ccc(C(F)(F)F)c(Cl)c2)NC(=O)CN(C)C(=O)[C@@H]1Cc1ccc(C(F)(F)F)cc1` [PP0413] ([NMeL]I[Sar][Sar][NPrPhe(4-CF3)][Sar][hPhe(3-Cl-4-CF3)][Pro(4,4-F2)][Ac5c][NMeGly(cPent)][NMeD]-NMe2; lactam N-11)?
Answer: NRAS/KRAS (ratio of KD value with respect to GDP-bound NRAS wild-type protein to KD value with respect to KRAS) ([1]; KD ratio NRAS/KRAS): C (A compound having a KD ratio of 0.1 or more and less than 3 is denoted as C); HRAS/KRAS (ratio of KD value with respect to GDP-bound HRAS wild-type protein to KD value with respect to KRAS) ([2]; KD ratio HRAS/KRAS): C (A compound having a KD ratio of 0.1 or more and less than 3 is denoted as C)

Question: Which “NRAS/KRAS (ratio of KD value with respect to NRAS to KD value with respect to KRAS)” value [1, 3] does the source give for `CCO[C@@H]1C[C@H]2C(=O)NC3(CCC3)C(=O)N(C)[C@@H](C3CCCC3)C(=O)N(C)[C@H](C(=O)N(C)C)CC(=O)N(C)[C@@H](COC)C(=O)N[C@@H]([C@@H](C)CC)C(=O)N3CC[C@H]3C(=O)N(C)[C@H]3CCCCCN(C3=O)[C@@H](Cc3ccc(C(F)(F)F)cc3)C(=O)N(C)CC(=O)N[C@@H](CCc3cc(F)c(C(F)(F)F)c(F)c3)C(=O)N2C1` [PP0864] here?
Answer: B (a compound having 3 or more and less than 10 is denoted as B)

Question: And the “HRAS/KRAS (ratio of KD value with respect to HRAS to KD value with respect to KRAS)” value [2, 4]?
Answer: B (a compound having 3 or more and less than 10 is denoted as B)

Question: What does the source list for `CCCN1C(=O)C[C@@H](C(=O)N2CCOCC2)N(C)C(=O)[C@H](C2CCCC2)N(C)C(=O)C2(CCC2)NC(=O)[C@@H]2CCCN2C(=O)[C@H](CCc2ccc(C(F)(F)F)c(Cl)c2)NC(=O)CN(C)C(=O)[C@H](Cc2ccc(C(F)(F)F)cc2)N(CCC)C(=O)CN(C)C(=O)CN(C)C(=O)[C@H](C(C)C)NC(=O)[C@@H]1CC(C)C` [PP1815] ([X33]V[Sar][Sar][NPrPhe(4-CF3)][Sar][hPhe(3-Cl-4-CF3)]P[Ac4c][NMeGly(cPent)][NMeD]-Morpholide; lactam N-11)?
Answer: NRAS/KRAS (ratio of KD value for NRAS to KD value for KRAS) [1, 3]: B (a compound having 3 or more and less than 10 is denoted as B); HRAS/KRAS (ratio of KD value for HRAS to KD value for KRAS) [2, 4]: B (a compound having 3 or more and less than 10 is denoted as B)

Question: How did the “NRAS/KRAS (ratio of KD value with respect to GDP-bound NRAS wild-type protein to KD value with respect to KRAS)” value ([1]; KD ratio NRAS/KRAS, GDP-bound wild-type proteins) turn out when `CCC[C@H]1C(=O)N[C@@H]([C@@H](C)CC)C(=O)N(C)CC(=O)N(C)[C@H]2C/C=C\CCN(C2=O)[C@@H](Cc2ccc(C)cc2)C(=O)N(C)CC(=O)N[C@@H](CCc2ccc(C(F)(F)F)c(OC)c2)C(=O)N2C[C@H](OCC)C[C@H]2C(=O)NC2(CC(C)(C)C2)C(=O)N(C)[C@@H]([C@@H](C)CC)C(=O)N(C)[C@H](C(=O)N(C)C)CC(=O)N1C` [PP3006] was run?
Answer: A (a compound having 10 or more and less than 20 is denoted as A)

Question: What about the “HRAS/KRAS (ratio of KD value with respect to GDP-bound HRAS wild-type protein to KD value with respect to KRAS)” value ([2]; KD ratio HRAS/KRAS, GDP-bound wild-type proteins) of the same compound?
Answer: A (a compound having 10 or more and less than 20 is denoted as A)

Question: What does the source list for `CC[C@H](C)[C@@H]1NC(=O)[C@H](CC(C)C)N(C)C(=O)C[C@@H](C(=O)N2CCOCC2)N(C)C(=O)[C@H](C2CCCC2)N(C)C(=O)C2(CCCC2)NC(=O)[C@@H]2CCCN2C(=O)[C@H](CCc2ccc(C(F)(F)F)c(Cl)c2)NC(=O)CN(C)C(=O)[C@H](Cc2ccc(C(F)(F)F)cc2)N(CC(C)C)C(=O)CN(C)C(=O)CN(C)C1=O` [PP0121] ([NMeL]I[Sar][Sar][X23][Sar][hPhe(3-Cl-4-CF3)]P[Ac5c][NMeGly(cPent)][NMeD]-Morpholide; lactam N-11)?
Answer: NRAS/KRAS (ratio of KD for GDP-bound NRAS wild-type to KD for KRAS) ([1]; KD ratio NRAS/KRAS): C (A compound having a KD ratio of 0.1 or more and less than 3 is denoted as C); HRAS/KRAS (ratio of KD for GDP-bound HRAS wild-type to KD for KRAS) ([2]; KD ratio HRAS/KRAS): C (A compound having a KD ratio of 0.1 or more and less than 3 is denoted as C)
